“Also recorded” adds a separate entry of the source. Where two headings read alike, the source gives them in different places.
Key:
[1] = type: in vivo, human; conditions: 10 g, 24 hour pooled urine, n=5
Experimental: The mean (±SEM) age, weight and body mass index (BMI) was 32±4 years, 75.0±4.0 kg and 25.0±1.3 kg/m^2, respectively.
(§1) The inclusion criteria for the investigation were a BMI of 20 to 35 kg/m^2 and 21 to 65 years of age.
Subjects were studied on four occasions one week apart. […] Cumulative ^13CO2 excretion was also calculated. Blood was collected serially throughout the study.
Plasma was collected at −15, 0, 15, 30, 60, 90, 120, 180, 240, 300, 360 min for analysis of ^13C propionate enrichment by GC-combustion-IRMS (GC-C-IRMS). Acetate ^13C enrichment was also measured in the same analysis as a control for dietary influence on SCFA ^13C enrichment and for evidence of inter-conversion between propionate and acetate. Data were expressed as δ^13C (per mil or ‰) which represents the change in the measured ratio in parts per thousand from the internationally accepted standard carbon Vienna Pee Dee Belemnite (VPDB). Urine was analyzed for ^13C propionate by GC-C-IRMS. Urine was collected and pooled from just before consumption of the propionate ester for a period of 24 hours. Two 25 ml aliquots were collected and stored at −20° C. until analysis. Isotopic enrichment was expressed as δ^13C (‰). SCFA concentrations (mmol/L) were measured relative to an internal standard (3-methyl valerate).

[2] = test system: Bifidobacterium spp (Bif164); assay: faecal batch culture fermentation with fluorescent in situ hybridisation; type: cell-based
Experimental: (§2) Faecal samples were obtained from three healthy human volunteers (one female and two males; age 30-50 years; BMI 25-31). Volunteers were excluded if they suffered from any gastrointestinal disorder (e.g. ulcerative colitis, Crohn's disease, irritable bowel syndrome, peptic ulcers and cancer) and/or had taken antibiotics in the six months preceding sample donation. Samples were kept under anaerobic conditions (10% H2, 10% CO2 and 80% N2) and used within a maximum of 30 minutes following collection. Samples were diluted 1/10 w/w in anaerobic PBS (0.1 mol/1 phosphate buffer solution, pH 7.4) and homogenised in a stomacher (Stomacher 400, Seward, West Sussex, UK) for 2 minutes at normal speed.
Sterile batch culture fermenters (150 ml working volume) were set up in parallel and aseptically filled with 135 ml pre-reduced, sterile basal culture medium (peptone water 2 g/1 (Oxoid), yeast extract 2 g/1 (Oxoid, Basingstoke, UK), NaCl 0.1 g/l, K2HPO4 0.04 g/l, KH2PO4 0.04 g/l, MgSO4.7H2O 0.01 g/l, CaCl2.6H2O 0.01, NaHCO3 2 g/l, Tween 80 2 ml (BDH, Poole, UK), haemin 0.05 g/1, vitamin K1 10 cysteine.HCl 0.5 g/1, bile salts 0.5 g/1). The fermenters were gassed overnight with O2 free N2. Propionate inulin ester and inulin control substrates ( 1/10 w/v) were added to their respective fermenters just prior to the addition of the faecal slurry. […]

[3] = type: in vivo, human
Experimental: Twenty healthy subjects (15 males and 5 females) were recruited for the food intake investigation. The mean (±SEM) age, weight and body mass index (BMI) was 31±2 years, 75.0±3.0 kg and 25.4±0.8 kg/m^2, respectively.
as §1
The study was performed in a randomized, double-blind, crossover manner, with each subject studied on two occasions >4 days apart. […] The amount of food was quantified preprandially and postprandially, and energy intake was calculated. […] In addition, VAS were also completed to assess the palatability of the standardized breakfast.
Differences in energy intake and incremental area under the curve (iAUC) for plasma hormone levels and VAS between trials were assessed using Paired Student's t tests. […] Significant effects were followed up by post hoc comparisons (Dunnett). P values<0.05 were considered statistically significant. Data are presented as means±SEM.

[4] = test system: Bacteroides/Prevotella (Bac303); assay: faecal batch culture fermentation with fluorescent in situ hybridisation; type: cell-based; conditions: all sampling points
Experimental: as §2
(§3) Sterile batch culture fermenters (150 ml working volume) were set up in parallel and aseptically filled with 135 ml pre-reduced, sterile basal culture medium (peptone water 2 g/1 (Oxoid), yeast extract 2 g/1 (Oxoid, Basingstoke, UK), NaCl 0.1 g/l, K2HPO4 0.04 g/l, KH2PO4 0.04 g/l, MgSO4.7H2O 0.01 g/l, CaCl2.6H2O 0.01, NaHCO3 2 g/l, Tween 80 2 ml (BDH, Poole, UK), haemin 0.05 g/1, vitamin K1 10 cysteine.HCl 0.5 g/1, bile salts 0.5 g/1). The fermenters were gassed overnight with O2 free N2. […] A substrate-free vessel was set up for each volunteer as the negative control.

[5] = test system: Atopobium cluster (Ato291); assay: as above; type: cell-based; conditions: between 10 and 34 h
Experimental: as §2, §3

[6] = From the text: Healthy men and women aged 40-65 years, with a BMI of 25-40 kg/m^2 were recruited from the general public. Potential subjects were excluded if they had clinically significant illnesses (including type 1 or type 2 diabetes), were taking medication known to affect appetite and/or body weight, a weight loss of 3 kg or greater in the preceding two months, smoking, substance abuse, psychiatric illness, restrained eating (Dutch eating behavior questionnaire: male score >2.25; female score >2.80), and any abnormalities detected on physical examination, electrocardiography, or screening blood tests (measurement of complete blood count, electrolytes, fasting glucose, thyroid function and liver function). Women were ineligible if they were pregnant or breast-feeding. […] The study was carried out in accordance with the Declaration of Helsinki.
The study was conducted in a randomized, double-blind, placebo-controlled, parallel design. Two-day study visits were required at baseline (week 0) and after 24 weeks of dietary supplementation. On the day prior to each study visit, subjects were asked to consume a standard evening meal, fast overnight from 22:00 and to avoid strenuous physical activity and alcohol. All study visits commenced between 08:00 and 09:00. […] The dietary supplement was supplied to subjects in ready-to-use sachets and they were instructed to mix the contents into their normal diet once a day during the 24 week treatment period. All subjects were instructed to maintain their usual dietary and activity habits during the intervention period. […] After 8 and 16 weeks of the intervention period, subjects were invited to attend follow-up visits to record body weight and monitor compliance and gastrointestinal side-effects. After 24 weeks, measurements taken at baseline were repeated. Subjects returned all their used and unused sachets to estimate compliance. Symptom diary was also collected over the period of the study.
At study visits, a cannula was inserted into an antecubital vein and baseline blood samples were collected at −10 and 0 min to assess plasma concentrations of glucose, insulin, PYY and GLP-1. Following the 0 min sample, subjects were served a standardized breakfast (398 kcal; 71.2 g CHO, 7.9 g fat, 10.3 g protein). […] Postprandial blood samples were taken at 15, 30, 60, 90, 120, 180, 240 and 300 min and collected into heparin-coated tubes containing 0.2 ml of aprotinin (Bayer, UK). GLP-1- and PYY-like immunoreactivity was measured using specific and sensitive in-house radioimmunoassays. Insulin-like immunoreactivity was measured using an ultra-sensitive human insulin radioimmunoassay (Millipore) and plasma glucose was measured using an Abbott Architect ci8200 analyser (Abbott Diagnostics, USA). At 300 min subjects were offered a buffet lunch with food served in excess and subjects were asked to eat until they were comfortably full. The amount of food was quantified and energy intake calculated. Subjective hunger, satiety, and nausea were monitored with the use of 100 mm visual analog scales (VAS). Subjects were asked to complete the VAS before each blood sample. In addition, breath H2 was measured at 0, 60, 120, 180, 240 and 300 min (Bedfont Scientific, Kent UK) in a subset of each group (9 in the propionate ester group, 8 in the inulin control group).
Body composition was assessed using magnetic resonance imaging (MRI) and spectroscopy (MRS). […] Body weight was measured in all subjects to the nearest 0.1 kg (TBF-300, Tanita) and taken while subjects were wearing light clothing.

[7] = 10 g, 0-420 minute post oral administration, 20 subjects
[8] = 24 weeks vs baseline, fasting blood, listed as control

inulin
urine 13C propionate enrichment δ13C [1]: −23.3±1.8 ‰
Bif164 labelled cells compared to baseline ([2]; all time points (10, 24, 34, 48 h)): significantly increased
Bif164 levels compared to propionate inulin ester cultures ([2]; throughout fermentation): significantly higher
fullness ratings, average iAUC [3, 7]: 26.6±2.9
hunger ratings, average iAUC [3, 7]: −24.3±4.7
pleasantness ratings, average iAUC [3, 7]: −26.6±4.6
prospective food intake ratings, average iAUC [3, 7]: −19.9±3.6
sickness ratings, average iAUC [3, 7]: −1.6±1.4
glucose levels, average iAUC ([3]; 10 g, whole meal test): 0.28±0.12
insulin levels, average iAUC ([3]; 10 g, whole meal test): 32.5±4.7
food intake during standardised ad libitum buffet meal ([3]; 7 hours after intake of 10 g supplement, 20 subjects, mean±SEM): 1175 ± 104 kcal
Bac303 labelled cells compared to baseline [4]: significant increases
Ato291 labelled cells compared to baseline [5]: increased significantly
body weight gained ([6]; 10 g/day, after 24 weeks): 0.38 ± 0.69 kg
breath hydrogen area under curve ([6]; 24 weeks): 5000±1480
fasting breath hydrogen ([6]; 24 weeks): 19.1±7 ppm
fasting glucose, insulin, HbA1c and triglyceride concentrations ([6]; 24 weeks): no significant effect
alanine transaminase [6, 8]: significantly reduced; also recorded: significant improvements
alkaline phosphatase [6, 8]: significantly reduced; also recorded: significant improvements
total cholesterol [6, 8]: significantly reduced; also recorded: significant improvements
subjects with substantial weight gain (≧5% baseline weight) ([6]; 24 weeks, number of subjects): 4 of 24
subjects with weight gain ≧3% baseline weight ([6]; 24 weeks, number of subjects): 6 of 24
ratio of internal adipose tissue:subcutaneous adipose tissue, within group ([6]; 24 weeks, p=0.002): significantly increased
internal adipose tissue, within group ([6]; 24 weeks, p=0.049): significantly increased
subjects with substantial weight gain (≧5% baseline weight) ([6]; 24 weeks, proportion): 17%
subjects with weight gain ≧3% baseline weight ([6]; 24 weeks, proportion): 25%
breath hydrogen area under curve ([6]; baseline): 2355±800
fasting breath hydrogen ([6]; baseline): 9±3 ppm
GLP-1 ΔAUC0-300 min ([6]; baseline (week 0)): 3441 ± 843 pmol/L
food intake at buffet lunch ([6]; baseline (week 0)): 678 ± 69 kcal
insulin response AUC0-300 min ([6]; baseline (week 0)): 9285±882 μU/mL
plasma PYY ΔAUC0-300 min ([6]; baseline (week 0)): 962 ± 869 pmol/L
glycemic response AUC0-300 min ([6]; baseline (week 0), standardized breakfast): 1600 ± 51 pmol/L
plasma PYY and GLP-1 release, week 24 vs baseline ([6]; postprandial period, within group): unaffected
GLP-1 ΔAUC0-300 min ([6]; week 24): 2278 ± 1000 pmol/L
bloating and flatulence (side effect profile) ([6]; week 24): significant increase
food intake at buffet lunch ([6]; week 24): 651 ± 64 kcal
insulin response AUC0-300 min ([6]; week 24): 8781±731 μU/mL
plasma PYY ΔAUC0-300 min ([6]; week 24): 656 ± 880 pmol/L
glycemic response AUC0-300 min ([6]; week 24, standardized breakfast): 1691 ± 54 pmol/L
reduction of food intake ([6]; week 24 vs baseline): 4.0%
insulin response, week 24 vs baseline ([6]; within group): not significantly different
postprandial glucose (glycemic) response, week 24 vs baseline ([6]; within group, listed as control): significantly greater; also recorded: significant deterioration
